# Values of other authors in US6423320B1, “Inhibitor of immunoglobulin E antibody production” (Tayca Corporation, priority 1997, dated 2002).
# Where a name gives a salt, the structure may show the parent alone.
# Test system: IgE antibody production
# Conditions: Bio Industry, Vol. 13, No. 12, pp. 42-50 (1996)
compound,measurement,value
"CCOCC(O)COc1ccc(NC(=O)CC[S+](C)C)cc1 (stereo not shown) [IPD, Suplatast Tosylate]",Inhibitory action on the production of IgE antibody,extremely weak inhibitory action
